# Results from ChEMBL document CHEMBL3885861, “Open TG-GATES”.
# Species on record: Rattus norvegicus
# Assay: Open TG-GATES - Regimen: Single
# Assay type: toxicity, organism-based, Sprague-Dawley
# Design: regimen Single, gender Male, age 6 weeks
# Conditions: in vivo, po, 150 mg/kg, route gavage, dose level Middle; for APTT / Bas / Eos / Fbg / Hb / Ht / Lym / MCH / MCHC / MCV / Mono / Neu / PT / Plat / RBC / Ret / WBC: tissue Blood; for KIDNEY_L / KIDNEY_R / KIDNEY_TOTAL: tissue Kidney; for LIVER: tissue Liver; for A/G / ALP / ALT / AST / BUN / CRE / Ca / Cl / DBIL / GLC / IP / K / LDH / Na / PL / RALB / TBIL / TC / TG / TP / gamma-GTP: tissue Plasma
structure (smiles),measurement,setting,value
CCC1(c2ccccc2)C(=O)NC(=O)NC1=O [PHENOBARBITAL],TERMINAL_BW,3 h,224.5 g
same,APTT,3 h,19.1 s
same,Bas,3 h,0.4%
same,Eos,3 h,1%
same,Fbg,3 h,217.2 mg/dL
same,Hb,3 h,13.8 g/dL
same,Ht,3 h,38.5%
same,Lym,3 h,82.4%
same,MCH,3 h,21.6 pg
same,MCHC,3 h,35.8%
same,MCV,3 h,60.4 fL
same,Mono,3 h,3%
same,Neu,3 h,12.6%
same,PT,3 h,12 s
same,Plat,3 h,129.5 x10_4/uL
same,RBC,3 h,637.8 x10_4/ul
same,Ret,3 h,7.8%
same,WBC,3 h,81.1 x10_2/uL
same,KIDNEY_L,3 h,1 g
same,KIDNEY_R,3 h,1 g
same,KIDNEY_TOTAL,3 h,2 g
same,LIVER,3 h,10.3 g
same,A/G,3 h,1.7
same,ALP,3 h,765.6 IU/L
same,ALT,3 h,39 IU/L
same,AST,3 h,66.4 IU/L
same,BUN,3 h,8.8 mg/dL
same,CRE,3 h,0.3 mg/dL
same,Ca,3 h,10.7 mg/dL
same,Cl,3 h,101.2 meq/L
same,DBIL,3 h,0.064 mg/dL
same,GLC,3 h,184.4 mg/dL
same,IP,3 h,9.8 mg/dL
same,K,3 h,4.4 meq/L
same,LDH,3 h,149.4 IU/L
same,Na,3 h,139.8 meq/L
same,PL,3 h,145.4 mg/dL
same,RALB,3 h,3.3 g/dL
same,TBIL,3 h,0.1 mg/dL
same,TC,3 h,71.4 mg/dL
same,TG,3 h,73.2 mg/dL
same,TP,3 h,5.3 g/dL
same,gamma-GTP,3 h,1 IU/L
same,TERMINAL_BW,6 h,221.3 g
same,APTT,6 h,20.4 s
same,Bas,6 h,0.2%
same,Eos,6 h,0.6%
same,Fbg,6 h,226 mg/dL
same,Hb,6 h,13.8 g/dL
same,Ht,6 h,38.1%
same,Lym,6 h,79%
same,MCH,6 h,21.5 pg
same,MCHC,6 h,36.3%
same,MCV,6 h,59.3 fL
same,Mono,6 h,3%
same,Neu,6 h,15.4%
same,PT,6 h,12 s
same,Plat,6 h,125.8 x10_4/uL
same,RBC,6 h,643 x10_4/ul
same,Ret,6 h,7.6%
same,WBC,6 h,90 x10_2/uL
same,KIDNEY_L,6 h,1 g
same,KIDNEY_R,6 h,1 g
same,KIDNEY_TOTAL,6 h,2 g
same,LIVER,6 h,9.3 g
same,A/G,6 h,1.5
same,ALP,6 h,756.8 IU/L
same,ALT,6 h,28.4 IU/L
same,AST,6 h,60.8 IU/L
same,BUN,6 h,8.2 mg/dL
same,CRE,6 h,0.4 mg/dL
same,Ca,6 h,10.7 mg/dL
same,Cl,6 h,100.6 meq/L
same,DBIL,6 h,0.07 mg/dL
same,GLC,6 h,178.2 mg/dL
same,IP,6 h,9.7 mg/dL
same,K,6 h,4.2 meq/L
same,LDH,6 h,178.4 IU/L
same,Na,6 h,139.6 meq/L
same,PL,6 h,137 mg/dL
same,RALB,6 h,3.2 g/dL
same,TBIL,6 h,0.1 mg/dL
same,TC,6 h,69.2 mg/dL
same,TG,6 h,67.6 mg/dL
same,TP,6 h,5.3 g/dL
same,gamma-GTP,6 h,1.2 IU/L
